One assay has as its target DA D1 receptor (Rattus norvegicus, UniProt P18901). Nature of the assay: biochemical. In kind it is binding. Particulars: IC50, D1 3H-SCH.
For a further assay, the target named is T1, DA D2 receptors (Rattus norvegicus, UniProt P61169).
T1 construct: DA D2 receptors in rat striatal membranes; from tissue; host or cells: rat striatal membranes
Nature of the assay: Inhibition of 3H-spiperone binding to DA D2 receptors in rat striatal membranes. Particulars: rat striatal membranes, 3H-spiperone; read-out: Receptor Binding; IC50, D2 3H-Spi.

In a further assay the target is T2, 5-HT2 receptors (Rattus norvegicus, UniProt P14842).
T2 construct: 5-HT2 receptors in membranes from rat cortex; from tissue; host or cells: membranes from rat cortex
T2 sequence (P14842 whole entry): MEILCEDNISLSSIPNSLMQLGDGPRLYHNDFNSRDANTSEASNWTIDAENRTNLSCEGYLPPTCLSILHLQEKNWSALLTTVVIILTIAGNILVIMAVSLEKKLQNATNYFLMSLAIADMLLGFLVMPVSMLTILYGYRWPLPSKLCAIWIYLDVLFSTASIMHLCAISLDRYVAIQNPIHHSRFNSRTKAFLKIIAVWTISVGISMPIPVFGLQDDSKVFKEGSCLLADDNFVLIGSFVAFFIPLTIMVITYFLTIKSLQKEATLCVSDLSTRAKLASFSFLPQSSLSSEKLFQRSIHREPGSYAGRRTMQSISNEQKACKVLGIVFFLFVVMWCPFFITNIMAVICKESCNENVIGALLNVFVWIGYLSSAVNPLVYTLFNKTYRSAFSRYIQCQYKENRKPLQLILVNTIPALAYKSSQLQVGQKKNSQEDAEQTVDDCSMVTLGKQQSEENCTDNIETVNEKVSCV
Put plainly: Inhibition of 3H-ketanserin binding to 5-HT2 receptors in membranes from rat cortex. To be noted: Receptor Binding, IC50, 5-HT2 3H-Ket. The procedure: Receptor binding studies.
5-HT2 receptors. Inhibition of ^3 H-ketanserin binding to 5-HT2 receptors in membranes from rat cortex was determined as described by Hyttel, J. Acta. Pharmacol. Toxicol.

Where [1] appears, read: rat striatal membranes, 3H-SCH 23390, read-out: Receptor Binding.

Like-named read-outs stand apart in the source and are kept apart here.

T1 sequence (P61169 whole entry): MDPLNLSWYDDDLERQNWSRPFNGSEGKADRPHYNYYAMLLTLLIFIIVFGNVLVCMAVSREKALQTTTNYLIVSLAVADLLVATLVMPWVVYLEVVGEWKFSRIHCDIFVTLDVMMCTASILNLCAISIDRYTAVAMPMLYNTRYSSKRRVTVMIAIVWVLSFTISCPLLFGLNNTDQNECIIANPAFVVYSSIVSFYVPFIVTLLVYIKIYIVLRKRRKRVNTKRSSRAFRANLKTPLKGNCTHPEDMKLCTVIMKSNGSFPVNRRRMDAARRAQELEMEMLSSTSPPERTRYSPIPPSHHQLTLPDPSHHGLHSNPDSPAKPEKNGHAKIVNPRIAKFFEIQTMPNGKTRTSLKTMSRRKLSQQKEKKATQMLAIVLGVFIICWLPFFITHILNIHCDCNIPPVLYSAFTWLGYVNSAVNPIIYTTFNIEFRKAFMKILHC
DA D1 receptor, sequence (P18901 whole entry): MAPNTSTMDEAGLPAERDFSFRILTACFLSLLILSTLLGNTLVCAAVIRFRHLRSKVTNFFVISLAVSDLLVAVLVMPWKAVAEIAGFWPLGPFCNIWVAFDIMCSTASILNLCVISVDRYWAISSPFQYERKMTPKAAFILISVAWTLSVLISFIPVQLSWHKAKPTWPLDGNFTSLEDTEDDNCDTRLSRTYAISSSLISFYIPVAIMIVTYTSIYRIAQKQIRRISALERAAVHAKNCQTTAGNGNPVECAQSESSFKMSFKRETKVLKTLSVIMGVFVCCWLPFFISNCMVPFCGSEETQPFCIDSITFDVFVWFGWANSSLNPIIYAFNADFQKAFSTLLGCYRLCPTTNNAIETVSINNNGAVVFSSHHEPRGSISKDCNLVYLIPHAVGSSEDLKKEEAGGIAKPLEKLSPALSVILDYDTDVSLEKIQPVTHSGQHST

Turning to `CC1(C)CN([C@@H]2C[C@@H](c3ccc(F)cc3)c3ccc(Cl)cc32)CCN1` (racemic) [Compound 1, (±)-Trans-4-[6-chloro-3-(4-fluorophenyl)-2,3-dihydro-1H-inden-1-yl]-2,2-dimethylpiperazine], the IC50 at DA D1 receptor (setting [1]) was determined as 2.1 nM; at DA D2 receptors, 7.3 nM; on 5-HT2 receptors, 3.2 nM.

With `CN1CCN([C@@H]2C[C@@H](c3ccccc3)c3ccccc32)CC1(C)C` (racemic) [Compound 3, (±)-Trans-4-[3-phenyl-2,3-dihydro-1H-inden-1-yl]-1,2,2-trimethyl-piperazine], the results for the IC50 on DA D1 receptor (Receptor Binding), on DA D2 receptors and on 5-HT2 receptors were 13 nM, 140 nM and 21 nM, respectively. On to `Cc1ccc2c(c1)[C@H](N1CCNC(C)(C)C1)C[C@H]2c1ccc(F)cc1` (racemic) [Compound 4, (±)-Trans-2,2-dimethyl-4-[6-methyl-3-(4-fluorophenyl)-2,3-dihydro-1H-inden-1-yl]piperazine], for which the IC50 came to 5.9 nM at DA D1 receptor (setting [1]), 5.6 nM on DA D2 receptors and 1.5 nM at 5-HT2 receptors. With `Cc1ccc2c(c1)[C@H](N1CCN(C)C(C)(C)C1)C[C@H]2c1ccc(F)cc1` (racemic) [Compound 5, (±)-Trans-4-[6-methyl-3-(4-fluorophenyl)-2,3-dihydro-1H-inden-1-yl]-1,2,2-trimethylpiperazine], the IC50 was found to be 2.1 nM on DA D1 receptor (Receptor Binding), 4.8 nM on DA D2 receptors and 3.4 nM at 5-HT2 receptors. Regarding `CC1(C)CN([C@@H]2C[C@@H](c3ccc(F)cc3)c3ccc(C(F)(F)F)cc32)CCN1` (racemic) [Compound 6, (±)-Trans-2,2-dimethyl-4-[6-trifluoromethyl-3-(4-fluorophenyl)-2,3-dihydro-1H-inden-1-yl]piperazine], the figures for the IC50 at DA D1 receptor (setting [1]) and on DA D2 receptors were 2.8 nM and 5.2 nM, respectively. Turning to `CN1CCN([C@@H]2C[C@@H](c3ccc(F)cc3)c3ccc(C(F)(F)F)cc32)CC1(C)C` (racemic) [Compound 7, (±)-Trans-4-[6-trifluoromethyl-3-(4-fluorophenyl)-2,3-dihydro-1H-inden-1-yl]-1,2,2-trimethylpiperazine], the IC50 on DA D1 receptor (Receptor Binding) is 1.5 nM; at DA D2 receptors, 5.7 nM; on 5-HT2 receptors, 4.5 nM. As for `CN1CCN([C@@H]2C[C@@H](c3ccc(F)cc3)c3c(Cl)cccc32)CC1(C)C` (racemic) [Compound 15, (±)-Trans-4-[4-chloro-3-(4-fluorophenyl)-2,3-dihydro-1H-inden-1-yl]-1,2,2-trimethylpiperazine], the IC50 at DA D1 receptor (setting [1]) worked out at 45 nM; at 5-HT2 receptors it was 29 nM.

Regarding `CC1CN([C@@H]2C[C@@H](c3ccc(F)cc3)c3ccc(Cl)cc32)CCN1C` (mixture of isomers) [Compound 18, (±)-Trans-4-[6-chloro-3-(4-fluorophenyl)-2,3-dihydro-1H-inden-1-yl]-1,2-dimethylpiperazine], the IC50 was found to be 2.4 nM at DA D1 receptor (setting [1]) and 12 nM at DA D2 receptors. The matching figures for `CCC1(CC)CN([C@@H]2C[C@@H](c3ccc(F)cc3)c3ccc(Cl)cc32)CCN1C` (racemic) [Compound 24, (±)-Trans-4-[6-chloro-3-(4-fluorophenyl)-2,3-dihydro-1H-inden-1-yl]-2,2-diethyl-1-methylpiperazine]: 8.8 nM and 38 nM. Consider `C[C@@H]1CN([C@@H]2C[C@@H](c3ccc(F)cc3)c3ccc(C(F)(F)F)cc32)C[C@H](C)N1` (racemic) [Compound 27, (±)-Trans-4-[6-trifluoromethyl-3-(4-fluorophenyl)-2,3-dihydro-1H-inden-1-yl]-cis-2,6-dimethylpiperazine], for which the results for the IC50 at DA D1 receptor (setting [1]) and at DA D2 receptors were 50 nM and 33 nM, respectively.

For the compound `CN1CCN([C@@H]2C[C@@H](c3ccc(F)cc3)c3ccc(Cl)cc32)CC12CCC2` (racemic) [Compound 28, (±)-Trans-8-[6-chloro-3-(4-fluorophenyl)-2,3-dihydro-1H-inden-1-yl]-5-methyl-5,8-diazaspiro[3.5]nonane], the values for the IC50 at DA D2 receptors and at 5-HT2 receptors were 6.3 nM and 3 nM, respectively.

`CN1CCN([C@@H]2C[C@@H](c3ccsc3)c3ccc(Cl)cc32)CC12CCCC2` (racemic) [Compound 30, (±)-Trans-9-[6-chloro-3-(3-thienyl)-2,3-dihydro-1H-inden-1-yl]-6-methyl-6,9-diazaspiro[4.5]decane]: the values for the IC50 on DA D1 receptor (setting [1]) and at DA D2 receptors were 1.8 nM and 5 nM, respectively. Turning to `CN1CCN([C@@H]2C[C@@H](c3ccc(F)cc3)c3ccc(Cl)cc32)CC12CCCCC2` (racemic) [Compound 32, (±)-Trans-4-[6-chloro-3-(4-fluorophenyl)-2,3-dihydro-1H-inden-1-yl]-1-methyl-1,4-diazaspiro[5.5]undecan], the IC50 at DA D1 receptor (setting [1]) was found to be 6 nM; at DA D2 receptors it was 24 nM.

Turning to `Fc1ccc([C@@H]2C[C@@H](N3CCN4CCCCC4C3)c3cc(Cl)ccc32)cc1` (mixture of isomers) [Compound 34, (±)-Trans-2-[6-chloro-3-(4-fluorophenyl)-2,3-dihydro-1H-inden-1-yl]-octahydropyrido[1,2-a]pyrazine], the IC50 at DA D1 receptor (setting [1]) was determined as 2.1 nM; at DA D2 receptors it was 11 nM. With `CC(C)N1CCN([C@@H]2C[C@@H](c3ccc(F)cc3)c3ccc(Cl)cc32)CC1C` (mixture of isomers) [Compound 41, (±)-Trans-4-[6-chloro-3-(4-fluorophenyl)-2,3-dihydro-1H-inden-1-yl]-2-methyl-1-(2-propyl)piperazine], the IC50 stood at 1.6 nM on DA D1 receptor (setting [1]) and 17 nM on DA D2 receptors. With `CC(C)N1CCN([C@@H]2C[C@@H](c3ccc(F)cc3)c3ccc(Cl)cc32)CC12CCCC2` (racemic) [Compound 42, (±)-Trans-9-[6-chloro-3-(4-fluorophenyl)-2,3-dihydro-1H-inden-1-yl]-6-(2-propyl)-6,9-diazaspiro[4.5]decane], the IC50 stood at 1.3 nM on DA D1 receptor (setting [1]) and 8.8 nM on DA D2 receptors. The matching figures for `CC1(C)CN([C@@H]2C[C@@H](c3ccc(F)cc3)c3ccc(Cl)cc32)CCN1CCO` (racemic) [Compound 43, (±)-Trans-4-[6-chloro-3-(4-fluorophenyl)-2,3-dihydro-1H-inden-1-yl]-2,2-dimethyl-1-piperazineethanol]: 1 nM and 3 nM. The corresponding values for `CC1(C)CN([C@@H]2C[C@@H](c3ccsc3)c3ccc(Cl)cc32)CCN1CCO` (racemic) [Compound 45, (±)-Trans-4-[6-chloro-3-(3-thienyl)-2,3-dihydro-1H-inden-1-yl]-2,2-dimethyl-1-piperazineethanol] are 0.82 nM and 2.8 nM.

`CC(C)C1CN([C@@H]2C[C@@H](c3ccc(F)cc3)c3ccc(Cl)cc32)CCN1C` (relative stereo) [Compound 21, Trans-4-[6-chloro-3-(4-fluorophenyl)-2,3-dihydro-1H-inden-1-yl]-1-methyl-2-(2-propyl)piperazine]: the IC50 was 3.2 nM on DA D1 receptor (setting [1]) and 36 nM at DA D2 receptors. The corresponding values for `CC(C)C1CN([C@@H]2C[C@@H](c3ccc(F)cc3)c3ccc(Cl)cc32)CCN1C` (relative stereo) [Compound 22, Trans-4-[6-chloro-3-(4-fluorophenyl)-2,3-dihydro-1H-inden-1-yl]-1-methyl-2-(2-propyl)piperazine] are 43 nM and 400 nM. For the compound `CC1CN([C@@H]2C[C@@H](c3ccc(F)cc3)c3ccc(Cl)cc32)C(C)CN1C` (relative stereo) [Compound 25, (±)-Trans-4-[6-chloro-3-(4-fluorophenyl)-2,3-dihydro-1H-inden-1-yl]-(1-trans-2,5-trimethyl)piperazine], the IC50 on 5-HT2 receptors was 3.4 nM.

On to `C[C@@H]1CN([C@@H]2C[C@@H](c3ccc(F)cc3)c3ccc(Cl)cc32)C[C@H](C)N1C` (relative stereo) [Compound 26, (±)-Trans-4-[6-chloro-3-(4-fluorophenyl)-2,3-dihydro-1H-inden-1-yl]-(1-cis-2,6-trimethyl)piperazine], for which the IC50 at 5-HT2 receptors worked out at 3.3 nM. Still for that read-out and setting: to `CN1CCN([C@@H]2C[C@@H](c3ccc(F)cc3)c3ccc(Cl)cc32)CC12CCCC2` (relative stereo) [Compound 29] belongs 5.2 nM; to `CC(C)N1CCN([C@@H]2C[C@@H](c3ccc(F)cc3)c3ccc(Cl)cc32)CC1(C)C` (relative stereo) [Compound 40], 4.1 nM; to `OCCN1CCN([C@@H]2C[C@@H](c3ccc(F)cc3)c3ccc(Cl)cc32)CC12CCCC2` (relative stereo) [Compound 44], 6 nM. On 5-HT2 receptors, `CN1CCN([C@@H]2C[C@@H](c3ccc(F)cc3)c3ccc(Cl)cc32)CC12CCCC2` (single isomer, unassigned) [+29, (+)-Trans-9-[6-chloro-3-(4-fluorophenyl)-2,3-dihydro-1H-inden-1-yl]-6-methyl-6,9-diazaspiro[4.5]decane] displayed an IC50 of 13 nM.

`CN1CCN([C@@H]2C[C@@H](c3ccc(F)cc3)c3ccc(Cl)cc32)CC12CCCC2` (single isomer, unassigned) [Compound -29]: at 5-HT2 receptors, the IC50 was found to be 4 nM. The same measure, in the same setting: with `CC(C)N1CCN([C@@H]2C[C@@H](c3ccc(F)cc3)c3ccc(Cl)cc32)CC1(C)C` (single isomer, unassigned) [Compound -40] the figure was 2.5 nM; with `OCCN1CCN([C@@H]2C[C@@H](c3ccc(F)cc3)c3ccc(Cl)cc32)CC12CCCC2` (single isomer, unassigned) [Compound -44], 2.5 nM.

With `OC1CCN2CCN(C3CC(c4ccc(F)cc4)c4ccc(F)cc43)CC2C1` (centres unmarked) [Compound 35, 2-[6-fluoro-3-(4-fluorophenyl)-2,3-dihydro-1H-inden-1-yl]-octahydropyrido[1,2-a]-pyrazine-8-ol], the results for the IC50 at DA D1 receptor (setting [1]) and at DA D2 receptors were 30 nM and 1100 nM, respectively.

These data come from patent publication US5807855A, “1-piperazino-1,2-dihydroindene derivatives” (priority 1992, dated 1998).
